From publication PMC7376718, “Flavonoids isolated from the South African weed Chromolaena odorata (Asteraceae) have pharmacological activity against uropathogens” (BMC Complementary Medicine and Therapies, 2020)
Values after ≈ are worked out from the molar mass of the structure shown. Like-named read-outs stand apart in the source and are kept apart here.

How the values were obtained:
[1] = test system: Aspergillus fumigatus from a chicken; assay: MIC, serial microdilution with INT; format: cell-based; conditions: for MIC: Aspergillus fumigatus, read-out: Minimum inhibitory concentration
From the text: (§1) The cultures used were Escherichia coli (American Type Culture Collection, ATCC 25922) labelled as 1, E. coli isolates (B1989/17 and B1962/17) labelled as 2 and 3 from equine urine, collected from the Department of Veterinary Tropical Diseases, Faculty of Veterinary Science, University of Pretoria, South Africa, Klebsiella pneumoniae isolate from commercial chicken eggs, Enterococcus faecalis (ATCC 29212), Pseudomonas aeruginosa (ATCC 27853), Staphylococcus aureus (ATCC 29213), Candida albicans from a Gouldian finch, Aspergillus fumigatus from a chicken and Cryptococcus neoformans from a cheetah. These microbial strains were maintained on MHA or SDA for bacteria and fungi respectively, while the isolates were maintained on blood agar.
(§2) Ten mg/mL of each fraction and 1 mg/mL of isolated compounds were prepared in 10% DMSO and tested against S. aureus, E. coli, K. pneumoniae, E. faecalis, P. aeruginosa, C. albicans, C. neoformans and A. fumigatus. Cultures were prepared by inoculating each microbial strain from prepared agar plates into sterilized MHB for bacterial and SDB for fungi in sterile McCartney bottles respectively. The inoculums were placed in an orbital shaker incubator. Bacterial strains were incubated at 37 °C for 18 h. Each bacterial culture was diluted in fresh MHB and the absorbance was measured at a wavelength of 560 nm using a microplate reader (Epoch Biotek). The readings were compared to a McFarland standard No. 1 correlating to approximately 3 × 10^8 cfu/mL). For fungi strains, cultures were incubated at 30 °C for 24 h (C. albicans), 72 h (C. neoformans) and 120 h (A. fumigatus) respectively. The resultant cells and spores were washed with sterile normal saline and absorbance was measured at a wavelength of 560 nm and turbidity was adjusted to a McFarland standard 1.This was further diluted in a 1:10 ratio in SDB to a turbidity of 5 × 10^5 cfu/mL. These diluted cultures (bacterial and fungi) were used for the screening following the serial microdilution method of Eloff.

[2] = test system: Candida albicans from a Gouldian finch; assay: MIC, serial microdilution with INT; format: cell-based; conditions: C. albicans, read-out: Minimum inhibitory concentration
From the text: as §1, §2

[3] = test system: Cryptococcus neoformans from a cheetah; assay: MIC, serial microdilution with INT; format: cell-based; conditions: C. neoformans, read-out: Minimum inhibitory concentration
From the text: as §1, §2

[4] = test system: C. neoformans and A. fumigatus; assay: Mean MIC over the fungal isolates; format: cell-based
From the text: as §1, §2

Caco2 cells = assay: in vitro; conditions: Caco2
Protocol: (§3) Different concentrations of the compounds ranging from 0.003 to 0.2 mg/mL were tested for cytotoxicity against three cell lines; Vero monkey kidney, C3A and Caco2. Vero cells were grown and maintained in MEM, supplemented with 0.1% gentamicin and 5% foetal calf serum, while Caco2 and C3A cells were grown and maintained in DMEM supplemented with 10% foetal calf serum, 1% non-essential amino acids and 1% penicillin-streptomycin. All cells were incubated in a 5% CO2 incubator at 37 °C. Doxorubicin chloride was used as positive control while 10% DMSO used in dissolving the test samples was used as the negative control. The 3-(4,5-dimethylthiazol)-2,5-diphenyl tetrazolium bromide (MTT) assay described by Mosmann with modification by McGaw et al. was used to determine the cytotoxicity of the test samples. The lethal concentration (LC50) value was calculated as the concentration of tested sample resulting in a 50% reduction of absorbance compared to untreated cells. Selectivity index (SI) values were calculated against the MIC using the formula: […]

in vitro [5] = assay: in vitro
Protocol: as §3

[6] = test system: Staphylococcus aureus (ATCC 29213); assay: MIC, serial microdilution with INT; format: cell-based; conditions: ATCC29213, S. aureus, read-out: Minimum inhibitory concentration
From the text: as §1, §2

[7] = test system: E. coli (B1962/17) isolate from equine urine, E. coli (3); assay: MIC, serial microdilution with INT; format: cell-based; conditions: Escherichia coli, read-out: Minimum inhibitory concentration
From the text: as §1, §2

[8] = test system: E. coli (B1989/17) isolate from equine urine, E. coli (2); assay: MIC, serial microdilution with INT; format: cell-based; conditions: Escherichia coli, read-out: Minimum inhibitory concentration
From the text: as §1, §2

[9] = test system: Escherichia coli (ATCC 25922), E. coli (1); assay: MIC, serial microdilution with INT; format: cell-based; conditions: for MIC: Escherichia coli, ATCC25922, E. coli (1), read-out: Minimum inhibitory concentration
From the text: as §1, §2

[10] = test system: Klebsiella pneumoniae isolate from commercial chicken eggs; assay: MIC, serial microdilution with INT; format: cell-based; conditions: K. pneumoniae; for MIC: Klebsiella pneumoniae, read-out: Minimum inhibitory concentration
From the text: as §1, §2

[11] = test system: selected microbial strains; assay: MIC summarised over the selected microbial strains; format: cell-based; conditions: summary over bacterial and fungal strains
From the text: as §1, with “These microbial strains were maintained on MHA or SDA for bacteria and fungi respectively, while the isolates were maintained on blood agar.” left out
Ten mg/mL of each fraction and 1 mg/mL of isolated compounds were prepared in 10% DMSO and tested against S. aureus, E. coli, K. pneumoniae, E. faecalis, P. aeruginosa, C. albicans, C. neoformans and A. fumigatus. […] Each bacterial culture was diluted in fresh MHB and the absorbance was measured at a wavelength of 560 nm using a microplate reader (Epoch Biotek). The readings were compared to a McFarland standard No. 1 correlating to approximately 3 × 10^8 cfu/mL). […] The resultant cells and spores were washed with sterile normal saline and absorbance was measured at a wavelength of 560 nm and turbidity was adjusted to a McFarland standard 1.This was further diluted in a 1:10 ratio in SDB to a turbidity of 5 × 10^5 cfu/mL. […]

S. aureus = test system: S. aureus; set-up: method as in earlier work; conditions: ref [70] Teffo et al.; cited from earlier work
in vitro [12] = assay: in vitro; remark: listed apart in the source
Protocol: as §3

E. coli = test system: E. coli; set-up: method as in earlier work; conditions: ref [70] Teffo et al.; cited from earlier work
[13] = test system: S. aureus, E. coli (1), E. coli (2), E. coli (3), K. pneumoniae; assay: Mean MIC over the bacterial strains; format: cell-based; conditions: mean over the five bacterial strains of Table 3
From the text: as §1, §2

Cytotoxicity, MTT assay = format: cell-based; conditions: human, C3A cells, read-out: Lethal concentration (LC50)
Protocol: Different concentrations of the compounds ranging from 0.003 to 0.2 mg/mL were tested for cytotoxicity against three cell lines; Vero monkey kidney, C3A and Caco2. Vero cells were grown and maintained in MEM, supplemented with 0.1% gentamicin and 5% foetal calf serum, while Caco2 and C3A cells were grown and maintained in DMEM supplemented with 10% foetal calf serum, 1% non-essential amino acids and 1% penicillin-streptomycin. All cells were incubated in a 5% CO2 incubator at 37 °C. Doxorubicin chloride was used as positive control while 10% DMSO used in dissolving the test samples was used as the negative control. The 3-(4,5-dimethylthiazol)-2,5-diphenyl tetrazolium bromide (MTT) assay described by Mosmann [50] with modification by McGaw et al. [51] was used to determine the cytotoxicity of the test samples. The lethal concentration (LC50) value was calculated as the concentration of tested sample resulting in a 50% reduction of absorbance compared to untreated cells.

[14] = test system: Enterococcus faecalis (ATCC 29212); assay: MIC, serial microdilution with INT; format: cell-based; conditions: ATCC29212, E. faecalis, read-out: Minimum inhibitory concentration
From the text: as §1, §2

[15] = test system: Pseudomonas aeruginosa (ATCC 27853); assay: MIC, serial microdilution with INT; format: cell-based; conditions: ATCC27853, P. aeruginosa, read-out: Minimum inhibitory concentration
From the text: as §1, §2

Compound	MIC ([1]; 48 h) [µg/mL]	MIC ([1]; 72 h) [µg/mL]	MIC ([1]; 120 h) [µg/mL]	MIC ([3]; 72 h, 72 h) [µg/mL]	CC50 (in vitro [5]) [µg/mL]	MIC [6] [µg/mL]	MIC [7] [µg/mL]	MIC [8] [µg/mL]	MIC [9] [µg/mL]	MIC [10] [µg/mL]	MIC ([3]; 48 h, 48 h) [µg/mL]	MIC, range or verdict over the strains tested [11]	CC50 (in vitro [12]) [µg/mL]	MIC [13] [µg/mL]	Minimum inhibitory concentration [10] [µg/mL]	further results
C[C@@H]1[C@H](O)[C@@H](C)/C=C/C=C/C=C/C=C/C=C/C=C/C=C/[C@H](O[C@@H]2O[C@H](C)[C@@H](O)[C@H](N)[C@@H]2O)C[C@@H]2O[C@](O)(C[C@@H](O)C[C@@H](O)[C@H](O)CC[C@@H](O)C[C@@H](O)CC(=O)O[C@H]1C)C[C@H](O)[C@H]2C(=O)O [Amphotericin B, amphotericin B, reference compound]	31 (≈ 33.5 µM)	63 (≈ 68.2 µM)	125 (≈ 135 µM)	125 (≈ 135 µM)	–	–	–	–	–	–	–	–	–	–	–	MIC ([2]; 24 h): 31 µg/mL (≈ 33.5 µM); MIC ([2]; 48 h): 63 µg/mL (≈ 68.2 µM); MIC ([3]; 120 h, 120 h): 125 µg/mL (≈ 135 µM); MIC ([4]; all time points of Table 3): 70 ± 60 µg/mL (≈ 75.8 µM); Mean MIC ([4]; all time points of Table 3, listed as Amp B): 70 µg/mL
COc1ccc(-c2oc3cc(O)cc(O)c3c(=O)c2O)cc1 [Compound 4, 3,5,7-trihydroxy-4′-methoxyflavone]	250 (≈ 833 µM)	> 250	> 2500	> 250	193 (≈ 643 µM)	250 (≈ 833 µM)	> 250	> 250	125 (≈ 416 µM)	> 250	> 250	weak antimicrobial activity	> 200	–	–	Selectivity index (LC50/MIC) (Caco2 cells; E. coli (1)): 1.544; Selectivity index (LC50/MIC) (Caco2 cells; S. aureus): 0.772; MIC / antibacterial activity (S. aureus): 250 µg/mL (≈ 833 µM); MIC / antibacterial activity (E. coli): 125 µg/mL (≈ 416 µM)
COc1ccc(-c2cc(=O)c3c(O)c(OC)c(O)cc3o2)cc1 [Compound 1, 5,7-dihydroxy-4′,6-dimethoxy-flavone]	63 (≈ 200 µM)	250 (≈ 795 µM)	> 2500	> 250	–	250 (≈ 795 µM)	> 250	> 250	250 (≈ 795 µM)	250 (≈ 795 µM)	> 250	weak antimicrobial activity	–	250 (≈ 795 µM)	–	Minimum inhibitory concentration ([1]; 48 h): good activity
COc1cccc2c1C(=O)c1c(O)c3c(c(O)c1C2=O)C[C@@](O)(C(=O)CO)C[C@@H]3O[C@H]1C[C@H](N)[C@H](O)[C@H](C)O1 [Doxorubicin, Doxorubicin chloride, reference compound]	–	–	–	–	–	–	–	–	–	–	–	–	–	–	–	CC50 (Cytotoxicity, MTT assay): 3.3 µg/mL
O=C(O)c1cn(C2CC2)c2cc(N3CCNCC3)c(F)cc2c1=O [Ciprofloxacin, ciprofloxacin, reference compound]	–	–	–	–	–	63 (≈ 190 µM)	1 (≈ 3.02 µM)	0.05 (≈ 0.151 µM)	2 (≈ 6.04 µM)	50 (≈ 151 µM)	–	–	–	20 (≈ 60.4 µM)	50 (≈ 151 µM)	–
CNC(C)C1CCC(N)C(OC2C(N)CC(N)C(OC3OCC(C)(O)C(NC)C3O)C2O)O1 (stereo not shown) [Gentamicin, gentamicin, reference compound]	–	–	> 2500	–	> 200	8 (≈ 16.8 µM)	8 (≈ 16.8 µM)	31 (≈ 64.9 µM)	20 (≈ 41.9 µM)	500 (≈ 1050 µM)	–	–	> 200	60 ± 110 (≈ 126 µM)	250 (≈ 523 µM)	Mean MIC [13]: 60 µg/mL; MIC [14]: 500 µg/mL (≈ 1050 µM); MIC [15]: 8 µg/mL (≈ 16.8 µM); Minimum inhibitory concentration ([9]; E. coli (1)): 16 µg/mL (≈ 33.5 µM)
